In patent EP0726261A1, “Herbidical 1,2,4 thiadiazoles” (American Cyanamid Company, priority 1995, dated 1996):

Assays:
Type in all cases: in vivo
Glycine max [1] = test: Herbicidal activity, preemergence test (Example 66); parameters: key: A rating of 0 indicates growth as untreated control; a rating of 9 indicates death; settings: pre; 1000 g/ha; assessed visually twenty days after spraying
Summary of the method: (§1)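 Damage is graded by eye on a linear 0-9 scale twenty days after treatment, with untreated sown soil or untreated seedlings as reference. The spray, 1000 g/ha in 900 L/ha from an acetone/0.4% Triton X-155 stock diluted in water, goes onto prepared horticultural loam or young plants.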

Avena fatua [2] = test: as above; parameters: key: A rating of 0 indicates growth as untreated control; a rating of 9 indicates death; settings: pre; 1000 g/ha; assessed visually twenty days after spraying
Summary of the method: as §1

Zea mays [3] = test: as above; parameters: key: A rating of 0 indicates growth as untreated control; a rating of 9 indicates death; settings: pre; 1000 g/ha; assessed visually twenty days after spraying
Summary of the method: as §1

Beta vulgaris [4] = test: as above; parameters: key: A rating of 0 indicates growth as untreated control; a rating of 9 indicates death; settings: pre; 1000 g/ha; assessed visually twenty days after spraying
Summary of the method: as §1

Echinochloa crus-galli [5] = test: as above; parameters: key: A rating of 0 indicates growth as untreated control; a rating of 9 indicates death; settings: pre; 1000 g/ha; assessed visually twenty days after spraying
Summary of the method: as §1

Sinapsis alba [6] = test: as above; parameters: key: A rating of 0 indicates growth as untreated control; a rating of 9 indicates death; settings: pre; 1000 g/ha; assessed visually twenty days after spraying
Summary of the method: as §1

Linum usitatissimum [7] = test: as above; parameters: key: A rating of 0 indicates growth as untreated control; a rating of 9 indicates death; settings: pre; 1000 g/ha; assessed visually twenty days after spraying
Summary of the method: as §1

Oryza sativa [8] = test: as above; parameters: key: A rating of 0 indicates growth as untreated control; a rating of 9 indicates death; settings: pre; 1000 g/ha; assessed visually twenty days after spraying
Summary of the method: as §1

Glycine max [9] = test: Herbicidal activity, postemergence test (Example 66); settings: post; 1000 g/ha; assessed visually twenty days after spraying
Summary of the method: as §1

Avena fatua [10] = test: as above; parameters: key: A rating of 0 indicates growth as untreated control; a rating of 9 indicates death; settings: post; 1000 g/ha; assessed visually twenty days after spraying
Summary of the method: as §1

Zea mays [11] = test: as above; parameters: key: A rating of 0 indicates growth as untreated control; a rating of 9 indicates death; settings: post; 1000 g/ha; assessed visually twenty days after spraying
Summary of the method: as §1

Beta vulgaris [12] = test: as above; parameters: key: A rating of 0 indicates growth as untreated control; a rating of 9 indicates death; settings: post; 1000 g/ha; assessed visually twenty days after spraying
Summary of the method: as §1

Echinochloa crus-galli [13] = test: as above; parameters: key: A rating of 0 indicates growth as untreated control; a rating of 9 indicates death; settings: post; 1000 g/ha; assessed visually twenty days after spraying
Summary of the method: as §1

Sinapsis alba [14] = test: as above; parameters: key: A rating of 0 indicates growth as untreated control; a rating of 9 indicates death; settings: post; 1000 g/ha; assessed visually twenty days after spraying
Summary of the method: as §1

Linum usitatissimum [15] = test: as above; parameters: key: A rating of 0 indicates growth as untreated control; a rating of 9 indicates death; settings: post; 1000 g/ha; assessed visually twenty days after spraying
Summary of the method: as §1

Oryza sativa [16] = test: as above; parameters: key: A rating of 0 indicates growth as untreated control; a rating of 9 indicates death; settings: post; 1000 g/ha; assessed visually twenty days after spraying
Summary of the method: as §1

SMILES	herbicidal effects on a 0-9 scale, GLXMA (Glycine max [1])	herbicidal effects on a 0-9 scale, AVEFA (Avena fatua [2])	herbicidal effects on a 0-9 scale, ZEAMX (Zea mays [3])	herbicidal effects on a 0-9 scale, BEAVA (Beta vulgaris [4])	herbicidal effects on a 0-9 scale, ECHCG (Echinochloa crus-galli [5])	herbicidal effects on a 0-9 scale, SINAL (Sinapsis alba [6])	herbicidal effects on a 0-9 scale, LIUUT (Linum usitatissimum [7])	herbicidal effects on a 0-9 scale, ORYSA (Oryza sativa [8])	herbicidal effects on a 0-9 scale, GLXMA (Glycine max [9])	herbicidal effects on a 0-9 scale, AVEFA (Avena fatua [10])	herbicidal effects on a 0-9 scale, ZEAMX (Zea mays [11])	herbicidal effects on a 0-9 scale, BEAVA (Beta vulgaris [12])	herbicidal effects on a 0-9 scale, ECHCG (Echinochloa crus-galli [13])	herbicidal effects on a 0-9 scale, SINAL (Sinapsis alba [14])	herbicidal effects on a 0-9 scale, LIUUT (Linum usitatissimum [15])	herbicidal effects on a 0-9 scale, ORYSA (Oryza sativa [16])
O=C(NCc1ccccc1)c1nc(-c2ccc(F)cc2)ns1 [Example 20]	0	0	0	0	0	0	0	0	6	0	0	9	2	9	6	0
C[C@H](NC(=O)c1nsc(-c2ccc(Cl)cc2)n1)c1ccccc1 [Example 24]	0	0	0	0	0	0	0	0	5	0	0	8	2	8	5	0
